Measurements as given in patent US20220142160A1, “METHOD OF INHIBITING OR REDUCING BIOFILM IN A PETROLEUM PRODUCTION PROCESS” (KEMIRA OYJ, priority 2019, published 2022).
Where “and” joins values, the source holds several entries; their conditions need not be identical. Identical values can stand only once.

How the values were obtained:
Format in all cases: cell-based, mixed culture of oil field bacteria
[1] = tested on: biofilm of mixed oilfield consortia; assay: Quantification of formed biofilm, weight gain of glass slides; design: average weight gain of Slides A and B: unit: mg; details: for average weight gain of Slides A and B: day 6; for Slide A weight gain: slide removed day 6, dried and weighed without further manipulation; for Slide B weight gain: slide removed day 6, scraped at 1 cm^2, then dried and weighed
Method: (§1) A mixed culture of oil field bacteria with Sulphate Reducing Bacteria (SRB), Acid Producing Bacteria (APB), and General Heterotrophic Bacteria (GHB) that came from an oil field system and had been frozen in glycerol maintained at −80° C. was used to study the effect of the test chemical compounds on biofilm formation and control thereof.
(§2) Biofilm tests were performed in 3.5 weight-% nutrient brine (NB) solution with minimal nutrients and a mixture of dodecane isomers, which are customary in oil field production waters and storage tanks.
(§3) The oilfield bacteria consortia was inoculated into the 3.5 weight-% nutrient brine solution and allowed to acclimate overnight at 32° C. in bulk. After acclimation, the solution was divided into 250 mL Pyrex bottles to contain 200 mL of the inoculated 3.5 weight-% nutrient brine and 25 mL of dodecane. Biofilms were grown on glass slides as removable attachment surfaces. Bottles were incubated at 32° C. with a rotary shaking (75 rpm) providing medium flow in each container.
Two glass slides were added to each reactor bottle as described above and below and were removed at the end of the 6-day test for observation of biofilm accumulation, with the following considerations. For biofilm control experiments comprising biofilm removal from glass slides in 3.5% nutrient brine media inoculated with the mixed oilfield bacterial cultures and dodecane, biofilm was grown without addition of any test chemical compound to be tested in the control. In the reactors containing the test chemical compound, they were re-dosed daily for 5 days. A nitrogen blanket was added to each reactor after each dosing.
As described above, two glass slides were added to each reactor bottle. One was used for bacterial counts and the second was used to observe for biofilm accumulation. The second glass slide used to observe for growth was rinsed with deionized water, dried for 20 hours at 70° C., weighed and photographed. The weight values shown in the following tables are weights from 3 replicate reactor bottles. All weight values are given as actual measured values of the glass slides.
Table 3 presents results related to the effect on biofilm biomass of Compound A and AMA-324 dosing on the mixed oilfield consortia in 3.5 weight-% nutrient brine with dodecane at 32° C. and 75 rpm. Compound A was dosed daily for 5 days. AMA-324 was dosed at initial set-up only. Two glass slides were each weighed and added to each test container at set-up. After dosing for 5 days, at day 6, the slides were removed for analysis. Slide A was dried and weighed without further manipulation. Slide B was scrapped at 1 cm^2 with a sterile wooden stick into sterile phosphate buffer solution for bacterial counts. The scraped glass slide was then dried and weighed.

[2] = tested on: mixed oilfield bacterial consortia; assay: Biocidal activity on mixed oilfield bacterial consortia (bacterial counts)
Method: as §1, §2, §3
(§4) Reactors each containing 200 mL of 3.5% nutrient brine were inoculated with the oilfield bacterial consortia and 25 mL of dodecane was treated with different amounts of the chemical compounds to be tested. A nitrogen blanket was added to the top of each reactor to minimize the oxygen content and allow a beneficial environment for anaerobic bacterial growth. […]

[3] = tested on: General Heterotrophic Bacteria (GHB); assay: Bacterial growth control test, planktonic bacterial counts, GHB; details: 75 ppm AMA-324 (active ingredient), sampled day 6; 3.5% nutrient brine with dodecane, 32° C., 75 rpm
Method: as §1, §2, §3, §4

[4] = tested on: Sulphate Reducing Bacteria (SRB); assay: Sessile bacterial counts from biofilm scraped off glass slides, SRB; details: slide scraped day 6, 3.5% nutrient brine with dodecane, 32° C., 75 rpm
Method: as §1, §2, §3, §4

[5] = tested on: Sulphate Reducing Bacteria (SRB); assay: Bacterial growth control test, planktonic bacterial counts, SRB; details: 75 ppm AMA-324 (active ingredient), sampled day 6; 3.5% nutrient brine with dodecane, 32° C., 75 rpm
Method: as §1, §2, §3, §4

[6] = tested on: Acid Producing Bacteria (APB); assay: Bacterial growth control test, planktonic bacterial counts, APB; details: 75 ppm AMA-324 (active ingredient), sampled day 6; 3.5% nutrient brine with dodecane, 32° C., 75 rpm
Method: as §1, §2, §3, §4

biofilm biomass = assay: Optical density measurements of biofilm biomass; details: data not shown
[7] = 75 ppm AMA-324 dosed at initial set-up only
[8] = 2 ppm Compound A dosed daily for 5 days
[9] = 5 ppm Compound A dosed daily for 5 days

Compound | average weight gain of Slides A and B [1, 7] | Slide A weight gain [1, 7] | Slide B weight gain [1, 7] | biocidal activity (bacterial counts as compared to the control) ([2]; dosage of 75 ppm active ingredient alone) | Planktonic Bacterial Counts/mL GHB bacteria [3] [Counts/mL] | Sessile Bacterial Counts/mL SRB bacterial ([4]; 75 ppm AMA-324 (active ingredient)) [Counts/mL] | Planktonic Bacterial Counts/mL SRB bacteria [5] [Counts/mL] | Planktonic Bacterial Counts/mL APB bacteria [6] [Counts/mL] | average weight gain of Slides A and B [1, 8] | Slide B weight gain [1, 8] | average weight gain of Slides A and B [1, 9] | Slide A weight gain [1, 9] | biofilm formation (weight of slides versus control or AMA-324) ([1]; Table 3 results, 1 to 5 ppm dosed daily for 5 days) | biocidal activity (bacterial counts as compared to the control) ([2]; dosage range of 1 ppm to 5 ppm, mixed oilfield bacterial consortia, anaerobic environment) | Sessile Bacterial Counts/mL SRB bacterial ([4]; 5.0 ppm Compound A dosed daily for 5 days) [Counts/mL] | amount of biofilm biomass by optical density measurements (biofilm biomass)
CN1CSC(=S)N(C)C1 [AMA-324, Tetrahydro-3,5-dimethyl-2H-1,3,5-thiadiazine-2-thione, reference compound] | 1.60 and 2.05 and 1.85 | 1.35 mg and 1.95 mg and 1.6 mg | 1.85 mg and 2.15 mg and 2.1 mg | acted as a biocide | <0.3 | <0.6 | <0.3 | <0.3 | – | – | – | – | – | – | – | –
Cc1ccc(S(=O)(=O)C=CC#N)cc1 [Compound A, 3-[(4-methylphenyl)sulfonyl]-2-propenenitrile] | – | – | – | – | – | – | – | – | 0.22 and 0.40 and 0.20 | 0.15 mg and 0.2 mg and 0.3 mg | 0.65 and 0.50 and 0.88 | 0.7 mg and 0.75 mg and 0.85 mg | very effectively reduced biofilm formation | did not act as a biocidal agent | 1.90E+07 | decreased the amount of biofilm biomass
